In patent US6465613B1, “Hydrophilic somatostatin analogs” (Tulane University, priority 1998, dated 2002):
Positions of bridges follow the written chain, without caps; N, C: chain ends. Non-standard residues stand in square brackets, D forms with d. Residues, ends and D or L forms follow the SMILES beside them. Phe(4-NH2) = Nc1ccc(C[C@H](N)C(=O)O)cc1; Dab = NCC[C@H](N)C(=O)O

Assays:
[1] = target: T1, human SRIF receptor type 2 (Homo sapiens, UniProt P30874); experiment: Radioligand binding assay, CHO-K1 membranes, 125I-MK-678; conditions: CHO-K1 cell membranes
T1 construct: expressed in transfected cells; host or cells: CHO-K1 cells (membranes)
T1 sequence (P30874 whole entry): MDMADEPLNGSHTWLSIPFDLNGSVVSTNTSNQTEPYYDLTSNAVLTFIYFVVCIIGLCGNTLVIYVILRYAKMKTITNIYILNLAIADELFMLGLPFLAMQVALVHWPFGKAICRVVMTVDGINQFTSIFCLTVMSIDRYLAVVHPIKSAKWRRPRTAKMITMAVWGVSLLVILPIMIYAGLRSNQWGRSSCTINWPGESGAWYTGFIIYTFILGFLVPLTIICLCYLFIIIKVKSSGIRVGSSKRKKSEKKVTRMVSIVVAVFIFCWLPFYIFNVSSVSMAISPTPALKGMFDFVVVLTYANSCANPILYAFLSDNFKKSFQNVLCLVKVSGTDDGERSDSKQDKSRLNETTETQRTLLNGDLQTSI
Experimental: (§1) For this study, cell membranes were obtained from homogenates of CHO-K1 cells (Chinese hamster ovary cells) ectopically expressing one of the five known somatostatin receptor subtypes (the cells were transfected with cDNA encoding a somatostatin receptor subtype, according to standard methods (see, e.g., Ausubel et al., Current Protocols in Molecular Biology, John Wiley & Sons, New York, N.Y., 1994)). […] The final assay volume was 0.3 ml. Incubations were terminated by rapid filtration through GF/C filters pre-soaked in 0.3% polyethylenimine using a 2 Brandel rapid filtration module (48 wells each). Each tube and filter was then washed 3 times with 5 ml aliquots of cold buffer.

[2] = target: T2, human SRIF receptor type 3 (Homo sapiens, UniProt P32745); experiment: Radioligand binding assay, CHO-K1 membranes, 125I-Tyr11-SRIF; conditions: CHO-K1 cell membranes, 0.05 nM 125I-Tyr11-SRIF
T2 construct: expressed in transfected cells; host or cells: CHO-K1 cells (membranes)
T2 sequence (P32745 whole entry): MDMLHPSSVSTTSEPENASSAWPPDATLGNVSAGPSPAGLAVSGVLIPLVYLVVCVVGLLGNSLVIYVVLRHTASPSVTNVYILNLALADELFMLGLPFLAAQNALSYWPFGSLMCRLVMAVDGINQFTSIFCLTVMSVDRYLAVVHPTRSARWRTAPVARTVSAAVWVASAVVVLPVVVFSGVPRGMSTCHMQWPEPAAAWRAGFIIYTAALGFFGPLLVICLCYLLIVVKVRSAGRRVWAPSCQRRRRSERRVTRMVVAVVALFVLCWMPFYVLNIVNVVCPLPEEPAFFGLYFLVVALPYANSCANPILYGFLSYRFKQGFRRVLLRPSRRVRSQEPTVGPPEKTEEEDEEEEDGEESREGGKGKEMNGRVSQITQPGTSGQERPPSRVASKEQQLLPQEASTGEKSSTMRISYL
Experimental: as §1

[3] = target: T3, human SRIF receptor type 4 (Homo sapiens, UniProt P31391); experiment: as above; conditions: CHO-K1 cell membranes, 0.05 nM 125I-Tyr11-SRIF
T3 construct: expressed in transfected cells; host or cells: CHO-K1 cells (membranes)
T3 sequence (P31391 whole entry): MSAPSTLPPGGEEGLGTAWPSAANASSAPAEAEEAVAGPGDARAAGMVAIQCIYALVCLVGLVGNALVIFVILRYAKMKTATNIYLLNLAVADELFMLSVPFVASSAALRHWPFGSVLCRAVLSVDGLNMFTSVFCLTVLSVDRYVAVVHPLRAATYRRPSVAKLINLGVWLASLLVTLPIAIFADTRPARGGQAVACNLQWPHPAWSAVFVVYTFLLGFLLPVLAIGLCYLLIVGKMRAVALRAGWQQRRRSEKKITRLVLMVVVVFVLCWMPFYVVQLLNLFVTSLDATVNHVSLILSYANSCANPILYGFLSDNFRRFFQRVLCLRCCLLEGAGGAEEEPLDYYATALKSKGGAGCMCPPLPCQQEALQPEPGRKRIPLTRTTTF
Experimental: as §1

[4] = target: T4, human SRIF receptor type 1 (Homo sapiens, UniProt P30872); experiment: as above; conditions: CHO-K1 cell membranes, 0.05 nM 125I-Tyr11-SRIF
T4 construct: expressed in transfected cells; host or cells: CHO-K1 cells (membranes)
T4 sequence (P30872 whole entry): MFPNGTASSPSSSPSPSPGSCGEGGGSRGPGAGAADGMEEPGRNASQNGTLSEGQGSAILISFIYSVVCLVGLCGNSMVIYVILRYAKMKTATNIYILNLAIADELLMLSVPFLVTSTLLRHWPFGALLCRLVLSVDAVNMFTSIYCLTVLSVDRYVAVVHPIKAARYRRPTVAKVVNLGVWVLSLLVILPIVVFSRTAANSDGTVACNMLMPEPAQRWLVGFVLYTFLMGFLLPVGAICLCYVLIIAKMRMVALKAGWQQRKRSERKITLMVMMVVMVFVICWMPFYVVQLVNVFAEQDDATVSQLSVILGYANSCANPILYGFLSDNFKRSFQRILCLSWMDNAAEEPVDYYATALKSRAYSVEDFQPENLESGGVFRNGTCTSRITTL
Experimental: as §1

[5] = target: T5, human SRIF receptor type 5 (Homo sapiens, UniProt P35346); experiment: as above; conditions: CHO-K1 cell membranes, 0.05 nM 125I-Tyr11-SRIF
T5 construct: expressed in transfected cells; host or cells: CHO-K1 cells (membranes)
T5 sequence (P35346 whole entry): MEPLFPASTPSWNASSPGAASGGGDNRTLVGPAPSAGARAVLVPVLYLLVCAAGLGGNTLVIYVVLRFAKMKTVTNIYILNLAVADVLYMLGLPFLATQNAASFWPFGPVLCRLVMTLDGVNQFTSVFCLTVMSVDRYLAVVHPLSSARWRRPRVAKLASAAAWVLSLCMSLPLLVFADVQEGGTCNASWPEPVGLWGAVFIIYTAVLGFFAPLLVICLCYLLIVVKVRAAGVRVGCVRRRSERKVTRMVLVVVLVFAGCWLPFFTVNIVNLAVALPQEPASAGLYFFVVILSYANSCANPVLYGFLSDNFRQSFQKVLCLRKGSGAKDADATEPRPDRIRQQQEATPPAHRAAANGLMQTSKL
Experimental: as §1

Row | SMILES | Kd [1] [nM] | Kd [2] [nM] | Kd [3] [nM] | Kd [4] [nM] | Kd [5] [nM]
1 | C[C@@H](O)[C@H](NC(=O)[C@@H]1CSSC[C@H](NC(=O)[C@H](CCCCN)NC(=O)[C@H](Cc2ccc(O)cc2)NC(=O)[C@H](CCCCN)NC(=O)[C@H](Cc2ccc(O)cc2)NC(=O)[C@H](N)CCCCN)C(=O)N[C@@H](Cc2ccccc2)C(=O)N[C@H](Cc2c[nH]c3ccccc23)C(=O)N[C@@H](CCCCN)C(=O)N[C@@H]([C@@H](C)O)C(=O)N1)C(N)=O [JF-05-59, D-Lys-Tyr-Lys-Tyr-Lys-c[Cys-Phe-D-Trp-Lys-Thr-Cys]-Thr-NH2] (H-[dK]YKYKCF[dW]KTCT-NH2; disulfide 6-11) | 0.36 | 6.4 | 515 | 4.1 | 13.4
2 | C[C@@H](O)[C@H](NC(=O)[C@@H]1CSSC[C@H](NC(=O)[C@H](CCCNC(=N)N)NC(=O)[C@H](Cc2ccc(O)cc2)NC(=O)[C@H](CCCNC(=N)N)NC(=O)[C@H](Cc2ccc(O)cc2)NC(=O)[C@H](N)CCCNC(=N)N)C(=O)N[C@@H](Cc2ccccc2)C(=O)N[C@H](Cc2c[nH]c3ccccc23)C(=O)N[C@@H](CCCCN)C(=O)N[C@@H]([C@@H](C)O)C(=O)N1)C(N)=O [JF-05-81, D-Arg-Tyr-Arg-Tyr-Arg-c[Cys-Phe-D-Trp-Lys-Thr-Cys]-Thr-NH2] (H-[dR]YRYRCF[dW]KTCT-NH2; disulfide 6-11) | 0.28 | 14.6 | > 1000 | 12.1 | 3.3
3 | C[C@@H](O)[C@H](NC(=O)[C@@H]1CSSC[C@H](NC(=O)[C@H](CCCCN)NC(=O)[C@H](Cc2ccc(O)cc2)NC(=O)[C@@H](CCCCN)NC(=O)[C@@H](Cc2ccc(O)cc2)NC(=O)[C@H](CCCCN)NC(=O)[C@H](Cc2ccc(O)cc2)NC(=O)[C@H](N)CCCCN)C(=O)N[C@@H](Cc2ccccc2)C(=O)N[C@H](Cc2c[nH]c3ccccc23)C(=O)N[C@@H](CCCCN)C(=O)N[C@@H]([C@@H](C)O)C(=O)N1)C(N)=O [JF-05-85, D-Lys-Tyr-Lys-D-Tyr-D-Lys-Tyr-Lys-c[Cys-Phe-D-Trp-Lys-Thr-Cys]-Thr-NH2] (H-[dK]YK[dY][dK]YKCF[dW]KTCT-NH2; disulfide 8-13) | 0.38 | 15.1 | 369 | 16.9 | 17.3
4 | C[C@@H](O)[C@H](NC(=O)[C@@H]1CSSC[C@H](NC(=O)[C@H](CCCCN)NC(=O)[C@H](Cc2ccc(N)cc2)NC(=O)[C@H](CCCCN)NC(=O)[C@H](Cc2ccc(N)cc2)NC(=O)[C@H](N)CCCCN)C(=O)N[C@@H](Cc2ccccc2)C(=O)N[C@H](Cc2c[nH]c3ccccc23)C(=O)N[C@@H](CCCCN)C(=O)N[C@@H]([C@@H](C)O)C(=O)N1)C(N)=O [JF-06-31, D-Lys-Pap-Lys-Pap-Lys-c[Cys-Phe-D-Trp-Lys-Thr-Cys]-Thr-NH2] (H-[dK][Phe(4-NH2)]K[Phe(4-NH2)]KCF[dW]KTCT-NH2; disulfide 6-11) | 0.09 | 20.8 | > 1000 | 1.5 | 3
5 | C[C@@H](O)[C@H](NC(=O)[C@@H]1CSSC[C@H](NC(=O)[C@@H](CCCCN)NC(=O)[C@@H](Cc2ccc(O)cc2)NC(=O)[C@@H](CCCCN)NC(=O)[C@@H](Cc2ccc(O)cc2)NC(=O)[C@H](N)CCCCN)C(=O)N[C@@H](Cc2ccccc2)C(=O)N[C@H](Cc2c[nH]c3ccccc23)C(=O)N[C@@H](CCCCN)C(=O)N[C@@H]([C@@H](C)O)C(=O)N1)C(N)=O [JF-06-44, D-Lys-D-Tyr-D-Lys-D-Tyr-D-Lys-c[Cys-Phe-D-Trp-Lys-Thr-Cys]-Thr-NH2] (H-[dK][dY][dK][dY][dK]CF[dW]KTCT-NH2; disulfide 6-11) | 0.87 | 0.91 | – | 3.8 | 17
6 | C[C@@H](O)[C@H](NC(=O)[C@@H]1CSSC[C@H](NC(=O)[C@H](CCN)NC(=O)[C@H](Cc2ccc(O)cc2)NC(=O)[C@H](CCN)NC(=O)[C@H](Cc2ccc(O)cc2)NC(=O)[C@@H](N)CCN)C(=O)N[C@@H](Cc2ccccc2)C(=O)N[C@H](Cc2c[nH]c3ccccc23)C(=O)N[C@@H](CCCCN)C(=O)N[C@@H]([C@@H](C)O)C(=O)N1)C(N)=O [JF-06-45, Dab-Tyr-Dab-Tyr-Dab-c[Cys-Phe-D-Trp-Lys-Thr-Cys]-Thr-NH2] (H-[Dab]Y[Dab]Y[Dab]CF[dW]KTCT-NH2; disulfide 6-11) | 1.37 | 22.7 | > 1000 | 6.2 | 115
7 | C[C@@H](O)[C@H](NC(=O)[C@@H]1CSSC[C@H](NC(=O)[C@@H](CCCCN)NC(=O)[C@@H](Cc2ccc(O)cc2)NC(=O)[C@H](N)CCCCN)C(=O)N[C@@H](Cc2ccccc2)C(=O)N[C@H](Cc2c[nH]c3ccccc23)C(=O)N[C@@H](CCCCN)C(=O)N[C@@H]([C@@H](C)O)C(=O)N1)C(N)=O [JF-06-50, D-Lys-D-Tyr-D-Lys-c[Cys-Phe-D-Trp-Lys-Thr-Cys]-Thr-NH2] (H-[dK][dY][dK]CF[dW]KTCT-NH2; disulfide 4-9) | 1.96 | 4.87 | > 1000 | 20.9 | 20
